Broadly, the EC50 is the concentration giving half of the maximal effect.

Results on one molecule are retold here after paper PMC3416681, “The orthosteric agonist 2-chloro-5-hydroxyphenylglycine activates mGluR5 and mGluR1 with similar efficacy and potency” (2012).

One experiment concerns the target T1, mGluR5b (Rattus norvegicus, UniProt P31424).
T1 construct: gene Grm5; splice variant mGluR5b
Nature of the experiment: whole-cell patch clamp, calcium current inhibition in SCG neurons expressing the receptor. The experiment is classed as cell-based.

The next experiment has as its target T2, mGluR1a (Rattus norvegicus, UniProt P23385).
T2 construct: gene Grm1; splice variant mGluR1a (untagged and N-terminally myc-tagged, data combined)
Described as above. The experiment is classed as cell-based.

T2 sequence (P23385 19-1199): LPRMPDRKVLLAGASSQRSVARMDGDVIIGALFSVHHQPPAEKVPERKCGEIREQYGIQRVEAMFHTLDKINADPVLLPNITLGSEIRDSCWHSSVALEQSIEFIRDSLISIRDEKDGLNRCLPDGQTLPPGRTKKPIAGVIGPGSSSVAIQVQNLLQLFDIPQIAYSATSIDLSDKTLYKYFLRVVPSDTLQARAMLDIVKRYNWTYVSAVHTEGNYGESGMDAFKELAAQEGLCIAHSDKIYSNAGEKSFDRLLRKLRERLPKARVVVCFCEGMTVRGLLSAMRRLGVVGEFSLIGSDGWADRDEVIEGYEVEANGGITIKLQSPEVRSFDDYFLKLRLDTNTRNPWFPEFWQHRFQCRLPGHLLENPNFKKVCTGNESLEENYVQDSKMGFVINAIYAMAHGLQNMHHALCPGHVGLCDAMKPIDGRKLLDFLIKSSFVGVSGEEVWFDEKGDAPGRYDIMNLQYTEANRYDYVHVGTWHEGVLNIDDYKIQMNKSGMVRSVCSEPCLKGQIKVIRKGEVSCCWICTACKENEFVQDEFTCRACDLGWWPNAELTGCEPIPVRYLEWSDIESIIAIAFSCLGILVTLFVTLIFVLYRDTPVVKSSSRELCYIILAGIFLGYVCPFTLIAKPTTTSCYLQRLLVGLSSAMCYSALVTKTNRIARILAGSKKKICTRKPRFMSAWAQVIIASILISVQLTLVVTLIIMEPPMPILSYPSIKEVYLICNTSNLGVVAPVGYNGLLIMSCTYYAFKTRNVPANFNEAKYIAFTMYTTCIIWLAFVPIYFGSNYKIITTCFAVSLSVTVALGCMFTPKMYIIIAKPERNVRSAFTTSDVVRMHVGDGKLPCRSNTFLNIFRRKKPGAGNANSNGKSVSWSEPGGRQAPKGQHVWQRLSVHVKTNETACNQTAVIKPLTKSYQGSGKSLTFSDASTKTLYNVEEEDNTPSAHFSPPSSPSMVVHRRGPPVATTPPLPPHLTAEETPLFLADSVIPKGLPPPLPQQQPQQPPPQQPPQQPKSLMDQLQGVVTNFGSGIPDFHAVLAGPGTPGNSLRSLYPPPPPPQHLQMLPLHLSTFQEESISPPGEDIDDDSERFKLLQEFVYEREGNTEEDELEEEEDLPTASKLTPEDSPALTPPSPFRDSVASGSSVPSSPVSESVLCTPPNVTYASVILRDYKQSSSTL
T1 sequence (P31424 21-1203): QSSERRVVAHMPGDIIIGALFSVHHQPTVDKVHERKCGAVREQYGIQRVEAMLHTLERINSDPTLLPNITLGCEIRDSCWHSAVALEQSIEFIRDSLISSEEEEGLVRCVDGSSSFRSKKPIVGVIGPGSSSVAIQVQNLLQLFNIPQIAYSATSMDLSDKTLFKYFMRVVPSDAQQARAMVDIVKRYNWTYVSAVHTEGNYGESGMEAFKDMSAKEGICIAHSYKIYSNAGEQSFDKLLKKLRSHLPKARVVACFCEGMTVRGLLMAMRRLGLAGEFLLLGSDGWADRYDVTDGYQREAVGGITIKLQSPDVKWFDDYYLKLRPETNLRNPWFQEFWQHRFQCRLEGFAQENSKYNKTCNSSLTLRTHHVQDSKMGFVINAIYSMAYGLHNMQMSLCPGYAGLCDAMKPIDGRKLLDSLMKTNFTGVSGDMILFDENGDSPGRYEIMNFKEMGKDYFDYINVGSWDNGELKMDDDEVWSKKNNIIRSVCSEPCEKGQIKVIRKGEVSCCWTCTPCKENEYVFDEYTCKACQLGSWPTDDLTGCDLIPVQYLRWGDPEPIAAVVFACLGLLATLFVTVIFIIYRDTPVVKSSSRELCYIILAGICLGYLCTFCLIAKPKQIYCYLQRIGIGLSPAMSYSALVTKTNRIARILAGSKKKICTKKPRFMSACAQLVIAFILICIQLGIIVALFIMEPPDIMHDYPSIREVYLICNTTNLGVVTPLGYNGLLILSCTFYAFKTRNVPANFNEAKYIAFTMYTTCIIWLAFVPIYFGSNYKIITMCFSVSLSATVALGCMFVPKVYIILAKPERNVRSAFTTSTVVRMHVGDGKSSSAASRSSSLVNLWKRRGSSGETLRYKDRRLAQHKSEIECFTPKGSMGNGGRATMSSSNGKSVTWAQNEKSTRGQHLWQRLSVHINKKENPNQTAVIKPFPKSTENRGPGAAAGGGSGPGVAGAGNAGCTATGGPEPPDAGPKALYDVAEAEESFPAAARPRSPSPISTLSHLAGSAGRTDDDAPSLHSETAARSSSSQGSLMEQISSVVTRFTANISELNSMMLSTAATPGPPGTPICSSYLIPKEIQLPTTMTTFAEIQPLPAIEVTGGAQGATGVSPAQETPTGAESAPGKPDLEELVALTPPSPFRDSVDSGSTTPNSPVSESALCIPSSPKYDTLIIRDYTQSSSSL

As to `NC(C(=O)O)c1cc(O)ccc1Cl` (racemic) [CHPG, 2-Chloro-5-hydroxyphenylglycine], the EC50 was 57 µM at mGluR5b and 80 µM on mGluR1a.
